Measurements published in patent publication US20220401514A1, “ANTIMICROBIAL, BACTERIOPHAGE-DERIVED POLYPEPTIDES AND THEIR USE AGAINST GRAM-NEGATIVE AND ACID-FAST BACTERIA” (CONTRAFECT CORPORATION, priority 2019, published 2022).
Read-outs that look alike come from different tables or passages of the source. Ends that are not written are not given here.

Experiments:
[1] = test system: M. fortuitum; test: 45 hr MIC against M. fortuitum (NTM); assay type: cell-based, Mycobacterium fortuitum; conditions: M. fortuitum subsp. Fortuitum da Costa Cruz. ATCC 6841
[2] = test system: M. smegmatis; test: 45 hr MIC against M. smegmatis (NTM), Mueller Hinton broth; assay type: cell-based, Mycobacterium smegmatis
[3] = test system: M. scrofulaceum; test: 45 hr MIC against M. scrofulaceum (NTM); assay type: cell-based, Mycobacterium scrofulaceum; conditions: M. scrofulaceum Prissick and Masson ATCC 19981
[4] = test system: Mycobacterium tuberculosis strains
Description: MIC values for various Chp peptides were determined using the CLSI method for broth microdilution in 96-well microtiter format.
Next, MIC values for various Chp peptides were determined using the CLSI method above for broth microdilution in 96-well microtiter format for two different Mycobacterium tuberculosis strains. The MIC was determined as explained above for the NTM strains.

[5] = test system: Acinetobacter baumannii; test: microbe, parasite or virus in culture; assay type: cell-based; conditions: for MIC50 / MIC100 / MIC Range: A. baumannii isolates (n per peptide in table); for MIC: Acinetobacter baumannii ATCC BAA 747, CAA supplemented with human serum
[6] = test system: S. maltophilia; test: MIC against S. maltophilia isolates; assay type: cell-based, Stenotrophomonas maltophilia; conditions: S. maltophilia isolates (n per peptide in table)
Description: (§1) Determination of Minimal Inhibitory Concentrations (MIC).
In addition to the results discussed above in Example 3, further testing was conducted on several Chp peptides. MIC values were determined against different species, including P. aeruginosa, K. pneumoniae, A. baumannii, E. cloacae, E. coli, and S. maltophilia, and the results are presented below in Tables 40-45, wherein n=number of isolates tested for each species and MIC is measured as μg/mL.

[7] = test system: Klebsiella pneumoniae; assay type: cell-based; conditions: for MIC50 / MIC100 / MIC Range: K. pneumoniae isolates (n per peptide in table); for MIC: Klebsiella pneumoniae HM-44, CAA supplemented with human serum
Description: as §1
(§2) Additional MIC testing was performed for several peptides against the ESKAPE pathogens Escherichia coli, Enterobacter cloacae, Klebsiella pneumoniae, and Acinetobacter baumannii, in CAA supplemented with human serum (Table D).

[8] = test system: M. avium; test: 45 hr MIC against M. avium (NTM); assay type: cell-based, Mycobacterium avium; conditions: M. avium Chester ATCC 700898
[9] = test system: M. intracellulare; test: 45 hr MIC against M. intracellulare (NTM); assay type: cell-based, Mycobacterium intracellulare; conditions: M. intracellulare (Cuttino and McCabe) Runyon ATCC 13950
[10] = test system: Pseudomonas aeruginosa; test: microbe, parasite or virus in culture; assay type: cell-based; conditions: P. aeruginosa isolates (n per peptide in table)
[11] = test system: M. kansasii Hauduroy ATCC 12478; test: 45 hr MIC against M. kansasii (NTM), Mueller Hinton broth; assay type: cell-based, Mycobacterium kansasii
[12] = test system: carbapenem-resistant bacterial strains; test: organism not typed; assay type: cell-based
Description: as §1

[13] = test system: carbapenem-resistant P. aeruginosa clinical isolate CFS-1292; test: MIC by modified CLSI broth microdilution against P. aeruginosa CFS-1292 (CAA, CAA + human serum); assay type: cell-based, Pseudomonas aeruginosa; conditions: for MIC (μg/mL) against CFS-1292 in 100% CAA (1st run/2nd run): 1st run or single value
[14] = Stability assessment in 100% CAA; assay type: in vitro ADME; parameters: unit not given beside the values
Description: Stability was assessed after incubation in 100% human serum at 37° C. after 10 minutes, 1 hour, and 2 hours.
Stability assessment was further conducted in 100% CAA and rabbit serum using the same methodology discussed above.

[15] = test system: Escherichia coli; test: microbe, parasite or virus in culture; assay type: cell-based; conditions: for MIC: Escherichia coli ATCC 25922, CAA supplemented with human serum
Description: as §1, §2

[16] = test system: Enterobacter cloacae; test: microbe, parasite or virus in culture; assay type: cell-based; conditions: for MIC: Enterobacter cloacae ATCC 13047, CAA supplemented with human serum
Description: as §1, §2

[17] = Mycobacterium tuberculosis (Zopf) Lehmann and Neumann ATCC 25177
[18] = Mycobacterium tuberculosis (Zopf) Lehmann and Neumann ATCC 35817
[19] = carbapenem-resistant isolate PA19
[20] = carbapenem-resistant isolate PA20
[21] = carbapenem-resistant isolate PA21
[22] = carbapenem-resistant isolate PA22
[23] = carbapenem-resistant isolate PA23
[24] = carbapenem-resistant isolate PA24
[25] = carbapenem-resistant isolate WLC-452
[26] = E. coli isolates (n per peptide in table)
[27] = E. cloacae isolates (n per peptide in table)

Sequence	45 hr MIC [1]	45 hr MIC ([2]; M. smegmatis MC^2 155, Run #1)	45 hr MIC ([2]; M. smegmatis MC^2 155, Run #2)	45 hr MIC [3]	MIC [4, 17]	MIC [4, 18]	MIC50 [5]	MIC100 [5]	MIC Range [5]	MIC50 [6]	MIC100 [6]	MIC50 [7]	MIC100 [7]	45 hr MIC [8]	45 hr MIC [9]	MIC50 [10]	45 hr MIC [11]	MIC (μg/mL) against CFS-1292 in 100% CAA (1st run/2nd run) [13]	MIC (μg/mL) against CFS-1292 in CAA + […] human serum [13]	MIC (100% CAA) [14]	other results
MAKKIRNKARDRRIFTRTASRMHKANRTPRFMRGGIRL [ALCES1]	4 µg/mL	1 µg/mL	2 µg/mL	2 µg/mL	32 µg/mL	8 µg/mL	2 µg/mL	2 µg/mL	1 to 2 µg/mL	4 µg/mL	8 µg/mL	>8 µg/mL	>8 µg/mL	8 µg/mL	2 µg/mL	>8 µg/mL	2 µg/mL				MIC100 [10]: >8 µg/mL
MAYRGFKTSRVVKHRVRRRWFNHRRRYR [Spi1]	8 µg/mL	2 µg/mL	16 µg/mL	2 µg/mL	32 µg/mL	16 µg/mL	1 µg/mL	1 µg/mL	1 µg/mL	2 µg/mL	2 µg/mL	2 µg/mL	4 µg/mL	>64 µg/mL	4 µg/mL	4 µg/mL	0.5 µg/mL	2 µg/mL	0.25 µg/mL	1	MIC [12, 19]: 2 µg/mL; MIC [12, 20]: 4 µg/mL; MIC [12, 21]: 8 µg/mL; MIC [12, 22]: 4 µg/mL; MIC [12, 23]: 8 µg/mL; MIC [12, 24]: 4 µg/mL; MIC [12, 25]: 2 µg/mL; MIC Range [7]: 2 to 4 µg/mL; MIC100 [10]: 8 µg/mL; MIC Range [10]: 2 to 8 µg/mL
MIVRRHKMSRRRSRKLFSKTASRTRSKNLRSRPMRGGYRI [Unp4]	4 µg/mL		16 µg/mL	4 µg/mL	32 µg/mL	16 µg/mL								1 µg/mL	4 µg/mL		4 µg/mL	2 µg/mL	>16 µg/mL		
MKLTKSDIAYREALGLSTTDPLPAEIGMVTRRANRLKRPRKTARFR [Myo1]	>64 µg/mL	>64 µg/mL	>64 µg/mL			32 µg/mL								8 µg/mL	>64 µg/mL		>64 µg/mL	>64 µg/mL			
MKMRKRTDKRVFTRTAAKSKKVNIAPKIFRGGIRL [Unp1]	8 µg/mL	4 µg/mL	2 µg/mL	8 µg/mL										1 µg/mL	32 µg/mL		8 µg/mL	4 µg/mL	4 µg/mL	4	MIC [5]: 8 µg/mL; MIC [7]: 8 µg/mL; MIC [15]: 0.5 µg/mL; MIC [16]: >32 µg/mL
MKPLKRKPVQKARSAAKFRRNVSTVKAANMAVKPMRGGWRF [Fen7875]	8 µg/mL	4 µg/mL	16 µg/mL	16 µg/mL										2 µg/mL	8 µg/mL		32 µg/mL	2 µg/mL	2 µg/mL	4	
MRPVKRSRVNKARSAGKFRKQVGKTKMANLRSNPMRGGWRL [HH3930]	8 µg/mL	4 µg/mL	16 µg/mL	16 µg/mL										4 µg/mL	16 µg/mL		32 µg/mL	2 µg/mL	4 µg/mL	2	
MRRKKMSRGKSKKLFRRTAKRVHRKNLRARPMRGGIRM [AVQ206]	2 µg/mL	4 µg/mL	16 µg/mL	4 µg/mL										1 µg/mL	4 µg/mL		2 µg/mL	0.5 µg/mL	0.25 µg/mL	<0.25	
MRRKVKNTKRHQWRLTHSARSIKRANIMPSNPRGGRRF [Spi2]	4 µg/mL	4 µg/mL	4 µg/mL	8 µg/mL	8 µg/mL	8 µg/mL	2 µg/mL	2 µg/mL	2 to 8 µg/mL	>8 µg/mL	>8 µg/mL	>8 µg/mL	>8 µg/mL	>64 µg/mL	>64 µg/mL	>8 µg/mL	1 µg/mL	16 µg/mL	0.25 µg/mL	4	MIC [12, 19]: >8 µg/mL; MIC [12, 20]: >8 µg/mL; MIC [12, 21]: >8 µg/mL; MIC [12, 22]: >8 µg/mL; MIC [12, 23]: >8 µg/mL; MIC [12, 24]: >8 µg/mL; MIC [12, 25]: >8 µg/mL; MIC [5]: 16 µg/mL; MIC Range [6]: >8 µg/mL; MIC Range [7]: >8 µg/mL; MIC [7]: 16 µg/mL; MIC100 [10]: >8 µg/mL; MIC Range [10]: >8 µg/mL; MIC50 [15, 26]: 4 µg/mL; MIC100 [15, 26]: >8 µg/mL; MIC [15]: 0.25 µg/mL; MIC50 [16, 27]: >8 µg/mL; MIC100 [16, 27]: >8 µg/mL; MIC [16]: 4 µg/mL
MRRPRKMNYKKSKRMFSRTAARTHRKNSLRGSRPMRGGIRL [Gkh1]	1 µg/mL	4 µg/mL	4 µg/mL	8 µg/mL	32 µg/mL	4 µg/mL	0.5 µg/mL	1 µg/mL	0.25 to 2 µg/mL	>8 µg/mL	>8 µg/mL	4 µg/mL	8 µg/mL	4 µg/mL	4 µg/mL	8 µg/mL	2 µg/mL	1 µg/mL	1 µg/mL	0.5	MIC [12, 19]: 2 µg/mL; MIC [12, 20]: >8 µg/mL; MIC [12, 21]: >8 µg/mL; MIC [12, 22]: >8 µg/mL; MIC [12, 23]: >8 µg/mL; MIC [12, 24]: 8 µg/mL; MIC [12, 25]: 2 µg/mL; MIC [5]: 2 µg/mL; MIC Range [7]: 1 to 8 µg/mL; MIC [7]: 0.5 µg/mL; MIC100 [10]: >8 µg/mL; MIC50 [15, 26]: 2 µg/mL; MIC100 [15, 26]: 2 µg/mL; MIC Range [15, 26]: 0.5 to 8 µg/mL; MIC [15]: 1 µg/mL; MIC50 [16, 27]: 1 µg/mL; MIC100 [16, 27]: 2 µg/mL; MIC Range [16, 27]: 0.5 to 8 µg/mL; MIC [16]: 32 µg/mL
MRRYNVNKGKSAKKFRKQVSKTKVANLRSNPMRGGWRL [AGT915]	1 µg/mL	4 µg/mL	1 µg/mL	>64 µg/mL										>64 µg/mL	>64 µg/mL		1 µg/mL	2 µg/mL	0.25 µg/mL	2	
